Read-outs that look alike come from different tables or passages of the source. Non-standard residues stand in square brackets, D forms with d. Residues, ends and D or L forms follow the SMILES beside them. Tyr(3,5-I2) = N[C@@H](Cc1cc(I)c(O)c(I)c1)C(=O)O; Oic = O=C(O)[C@@H]1C[C@@H]2CCCC[C@@H]2N1; 2Nal = N[C@@H](Cc1ccc2ccccc2c1)C(=O)O; d2Nal = N[C@H](Cc1ccc2ccccc2c1)C(=O)O; Hyp = O=C(O)[C@@H]1C[C@@H](O)CN1; Tic = O=C(O)[C@@H]1Cc2ccccc2CN1; dTic = O=C(O)[C@H]1Cc2ccccc2CN1; 2Thi = N[C@@H](Cc1cccs1)C(=O)O; Ahx = NCCCCCC(=O)O; Sar = CNCC(=O)O
Columns and labels:
[1] = target: T1, human B1 receptor (Homo sapiens, UniProt P46663); assay: cell-based; settings: for Human umbilical vein B1 receptor α^E: residual agonistic activity at 10 μg/mL
T1 sequence (P46663 1-353): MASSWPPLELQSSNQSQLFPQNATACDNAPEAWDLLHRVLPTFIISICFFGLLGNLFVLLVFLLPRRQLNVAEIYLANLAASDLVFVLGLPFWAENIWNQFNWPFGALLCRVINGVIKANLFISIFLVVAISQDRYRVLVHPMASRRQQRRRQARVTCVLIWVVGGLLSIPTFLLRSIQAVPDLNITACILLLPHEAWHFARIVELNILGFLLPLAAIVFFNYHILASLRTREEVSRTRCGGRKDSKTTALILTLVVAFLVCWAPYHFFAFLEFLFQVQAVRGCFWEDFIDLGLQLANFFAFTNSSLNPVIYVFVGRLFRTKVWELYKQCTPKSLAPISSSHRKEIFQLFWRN
Method in brief: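 Isolated rabbit jugular vein (captopril 1 μmol/L), guinea pig ileum, endothelium-free rabbit aorta and human umbilical vein, in Krebs at 37 °C, with isometric tension recorded. Agonism was tested at 10 μg/mL.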

[2] = target: T2, human B2 receptor (Homo sapiens, UniProt P30411); assay: Human umbilical vein bioassay in presence of Lys(Leu8)desArg9BK, B2 receptor; assay type: cell-based; settings: vs BK, Lys(Leu8)desArg9BK 1 μmol/L present
T2 construct: Helical strips of HUV were prepared according to Gobeil et al; from tissue; host or cells: human umbilical vein helical strips
T2 sequence (P30411 1-391): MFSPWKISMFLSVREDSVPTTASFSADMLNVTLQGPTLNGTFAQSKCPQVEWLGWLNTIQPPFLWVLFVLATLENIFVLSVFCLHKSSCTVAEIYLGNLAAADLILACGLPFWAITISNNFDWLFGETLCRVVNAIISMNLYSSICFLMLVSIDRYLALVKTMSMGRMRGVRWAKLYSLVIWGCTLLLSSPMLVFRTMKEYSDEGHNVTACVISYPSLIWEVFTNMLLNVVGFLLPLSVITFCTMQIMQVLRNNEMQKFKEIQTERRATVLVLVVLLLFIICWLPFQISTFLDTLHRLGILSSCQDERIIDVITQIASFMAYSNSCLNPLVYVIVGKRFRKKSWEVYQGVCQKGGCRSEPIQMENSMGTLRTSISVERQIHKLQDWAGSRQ
Excerpt: Tissues were taken from New Zealand white rabbits (1.5–2.5 kg) and Dunken Hartley guinea pigs (250–350 g) of either sex, killed by stunning and exsanguination. Umbilical cords were taken from healthy women 22–40 years old after spontaneous delivery at term. The rabbit jugular vein (RbJV), the guinea pig ileum (GPI), two preparations containing B2 receptors, the rabbit aorta (RbA) (B1 receptor) and the human umbilical vein (HUV), a mixed preparation containing both B1 and B2 receptors^10, were used. Helical strips of RbJV treated with 1 μmol/L of captopril to avoid peptide degradation by the angiotensin-converting enzyme (ACE), alias kininase II were prepared according to Gaudreau et al.^11 Helical strips of RbA devoid of endothelium were prepared according to Furchgott and Bhadrakom^12. Longitudinal segments of GPI were prepared with the procedure described by Rang^13. Helical strips of HUV were prepared according to Gobeil et al.^10. The tissues were suspended in 10-ml organ baths containing warm (37EC), oxygenated (95% O2–5% CO2) Krebs solution of the following composition in mmol/L; NaCl: 118.1; KCl: 4.7; CaCl26H2O: 2.5; KH2PO4: 1.2; MgSO47H2O: 1.18; NaHCO3: 25.0 and D-Glucose: 5.5. The RbA and the HUV were stretched with an initial tension of 2 g, whereas the RbJV and the GPI were loaded with 0.5 g. Changes of tension produced by the various agents were measured with Grass isometric transducers (model FT 03C, Grass Instrument Co., Quincy, Mass.). […] Before testing the drugs, the tissues were allowed to equilibrate for 60–120 min during which time the tissues were repeatedly washed and the tension readjusted every 15 min.
At the beginning of each experiment, a submaximal dose of bradykinin (BK) (9 nmol/L), was applied repeatedly on the RbJV, the GPI or the HUV to ensure that tissues responded with stable contractions. […] A similar protocol was used for the HUV.
Repeated applications of a singl and double concentration of BK (on RbJV, GPI and HUV) and of desArg^9BK (RbA and HUV) were made in the absence and in presence of the various peptides to evaluate their apparent affinities as antagonists, in terms of pA2 (-log10 of the molar concentration of antagonist that reduces the effect of a double concentration of agonist to that of a single one)^14. The antagonists were applied 10 min before measuring the myotropic effects of either BK (the B2 receptor agonist) or desArg^9BK (the B1 receptor agonist). […] All kinin antagonists were initially applied to tissues at concentration of 10 μg/mL to measure their potential agonistic activities (α^E) in comparison with BK (in the B2 receptor preparations) or desArg^9BK (in the B1 receptor preparations).

[3] = system: T3, angiotensin-converting enzyme (ACE); assay: Metabolic degradation by purified angiotensin-converting enzyme, HPLC analysis; assay type: in vitro ADME, rabbit; settings: rabbit, isolated enzyme ace, pH 7.5
T3 construct: purified angiotensin-converting enzyme (ACE) from rabbit lungs; purchased Sigma, St-Louis, Mo; host or cells: purified from rabbit lungs
Method in brief: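 Purified rabbit lung ACE (45 μg/mL final) in PBS (50 mmol/L, pH 7.5, 300 mmol/L NaCl) was incubated with peptides at 37 °C; peptides were pre-incubated 5 min before enzyme addition and samples were boiled to stop the reaction. Percent kinin degradation after 30 min was quantified by C18 reverse-phase HPLC at 214 nm, with metabolites identified by electrospray MS.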

[4] = Human umbilical vein B1 receptor pA2, vs desArg9BK, HOE140 400 nmol/L present
[5] = 30 min incubation of peptide (200 μmol/L) with ACE, 37 C, read-out: ACE (% degradation)

Row | SMILES | Kb [1, 4] [nM] | Human umbilical vein B2 receptor pA2 [2] | metabolised at 0.5 h [3] [%] | Human umbilical vein B1 receptor α^E [1] | metabolised at 0.5 h, 42.1 μmol/L [3] [%] | Kb [1] [nM] | metabolised at 0.5 h, 42.1 μmol/L [3, 5] [%] | Human umbilical vein B1 receptor pA2 ([1]; vs desArg9BK, HOE140 400 nmol/L present) | metabolised at 0.5 h [3, 5] [%]
1 | CC(C)C[C@H](NC(=O)[C@H]1Cc2ccccc2CN1C(=O)[C@H](CO)NC(=O)[C@H](Cc1ccccc1)NC(=O)CNC(=O)[C@@H]1CCCN1C(=O)[C@@H]1CCCN1C(=O)[C@@H](N)CCCNC(=N)N)C(=O)O [Compound 8, (D-Tic^7, Leu^8)desArg^9BK] (H-RPPGFS[dTic]L-OH; N-terminus and C-terminus assumed) | 2750 | Inactive | 0 |  |  |  |  |  | 
2 | CC[C@H](C)[C@H](NC(=O)[C@H]1Cc2ccccc2CN1C(=O)[C@H](CO)NC(=O)[C@H](Cc1ccccc1)NC(=O)CNC(=O)[C@@H]1CCCN1C(=O)[C@@H]1CCCN1C(=O)[C@H](CCCNC(=N)N)NC(=O)[C@H](N)CCCNC(=N)N)C(=O)O [Compound 13, D-Arg(D-Tic^7, Ile^8)desArg^9BK] (H-[dR]RPPGFS[dTic]I-OH; N-terminus and C-terminus assumed) | 22.9 | Inactive | 9 ± 1 |  |  |  |  |  | 
3 | CC[C@H](C)[C@H](NC(=O)[C@@H]1Cc2ccccc2CN1C(=O)[C@H](CO)NC(=O)[C@H](Cc1ccccc1)NC(=O)CNC(=O)[C@@H]1CCCN1C(=O)[C@@H]1CCCN1C(=O)[C@H](CCCNC(=N)N)NC(=O)[C@H](N)CCCNC(=N)N)C(=O)O [Compound 14, D-Arg(L-Tic^7, Ile^8)desArg^9BK] (H-[dR]RPPGFS[Tic]I-OH; N-terminus and C-terminus assumed) | 4680 | Inactive | 77 ± 3 |  |  |  |  |  | 
4 | CC(=O)N[C@@H](CCCCN)C(=O)N[C@@H](CCCNC(=N)N)C(=O)N1CCC[C@H]1C(=O)N1CCC[C@H]1C(=O)NCC(=O)N[C@@H](Cc1ccccc1)C(=O)N[C@@H](CO)C(=O)N[C@H](Cc1ccc2ccccc2c1)C(=O)N[C@@H](CC(C)C)C(=O)O [Compound 18, AcLys(D-βNal^7, Leu^8)desArg^9BK] (Ac-KRPPGFS[d2Nal]L-OH; C-terminus assumed) | 35.5 | Inactive |  | 0 | 22 ± 1 |  |  |  | 
5 | CC[C@H](C)[C@H](NC(=O)[C@@H](Cc1ccc2ccccc2c1)NC(=O)[C@H](CO)NC(=O)[C@H](Cc1ccccc1)NC(=O)CNC(=O)[C@@H]1CCCN1C(=O)[C@@H]1CCCN1C(=O)[C@H](CCCN=C(N)N)NC(=O)[C@H](CCCCN)NC(C)=O)C(=O)O [Compound 19, AcLys(D-βNal^7, Ile^8)desArg^9BK] (Ac-KRPPGFS[d2Nal]I-OH) |  |  |  |  | 34 ± 1 | 3.16 |  |  | 
6 | CC[C@H](C)[C@H](NC(=O)[C@H](Cc1ccc2ccccc2c1)NC(=O)[C@H](CO)NC(=O)[C@H](Cc1ccccc1)NC(=O)CNC(=O)[C@@H]1CCCN1C(=O)[C@@H]1CCCN1C(=O)[C@H](CCCNC(=N)N)NC(=O)[C@H](CCCCN)NC(C)=O)C(=O)O [Compound 20, AcLys(L-βNal^7, Ile^8)desArg^9BK] (Ac-KRPPGFS[2Nal]I-OH; C-terminus assumed) | 6920 | Inactive |  | 0 | 99 ± 1 |  |  |  | 
7 | CC(C)C[C@H](NC(=O)[C@@H](Cc1ccc2ccccc2c1)NC(=O)[C@H](CO)NC(=O)[C@H](Cc1ccccc1)NC(=O)CNC(=O)[C@@H]1CCCN1C(=O)[C@@H]1CCCN1C(=O)[C@H](CCCNC(=N)N)NC(=O)[C@H](N)CCCNC(=N)N)C(=O)O [Compound 24, D-Arg(D-βNal^7, Leu^8)desArg^9BK] (H-[dR]RPPGFS[d2Nal]L-OH; N-terminus and C-terminus assumed) | 50.1 | Inactive |  |  | 5 ± 1 |  |  |  | 
8 | CC[C@H](C)[C@H](NC(=O)[C@@H](Cc1ccc2ccccc2c1)NC(=O)[C@H](CO)NC(=O)[C@H](Cc1ccccc1)NC(=O)CNC(=O)[C@@H]1CCCN1C(=O)[C@@H]1CCCN1C(=O)[C@H](CCCNC(=N)N)NC(=O)CNC)C(=O)O [Compound 26, Sar(D-βNal^7, Ile^8)desArg^9BK] (H-[Sar]RPPGFS[d2Nal]I-OH; N-terminus and C-terminus assumed) | 47.9 | Inactive |  |  |  |  | 0 |  | 
9 | CC[C@H](C)[C@H](NC(=O)[C@@H](Cc1ccc2ccccc2c1)NC(=O)[C@H](CO)NC(=O)[C@H](Cc1ccccc1)NC(=O)CNC(=O)[C@@H]1CCCN1C(=O)[C@@H]1CCCN1C(=O)[C@H](CCCNC(=N)N)NC(=O)[C@H](CCCCN)NC(=O)CCCCCNC(=O)[C@H](Cc1ccc(O)cc1)NC(=O)CNC)C(=O)O [Compound 29, SarTyrεAhxLys(D-βNal^7, Ile^8)desArg^9BK] (H-[Sar]Y[Ahx]KRPPGFS[d2Nal]I-OH; N-terminus and C-terminus assumed) | 4.07 | Inactive |  |  | 15 ± 1 |  |  |  | 
10 | CC[C@H](C)[C@H](NC(=O)[C@@H](Cc1ccc2ccccc2c1)NC(=O)[C@H](CO)NC(=O)[C@H](Cc1ccccc1)NC(=O)CNC(=O)[C@@H]1CCCN1C(=O)[C@@H]1CCCN1C(=O)[C@H](CCCNC(=N)N)NC(=O)[C@H](CCCCN)NC(=O)CCCCCNC(=O)[C@H](Cc1cc(I)c(O)c(I)c1)NC(=O)CNC)C(=O)O [Compound 30, SarTyr(3,5-I)εAhxLys(D-βNal^7, Ile^8)desArg^9BK] (H-[Sar][Tyr(3,5-I2)][Ahx]KRPPGFS[d2Nal]I-OH; N-terminus and C-terminus assumed) | 4.79 | Inactive |  |  | 13 ± 1 |  |  |  | 
11 | N=C(N)NCCC[C@@H](N)C(=O)N[C@@H](CCCNC(=N)N)C(=O)N1CCC[C@H]1C(=O)N1C[C@H](O)C[C@H]1C(=O)NCC(=O)N[C@@H](Cc1cccs1)C(=O)N[C@@H](CO)C(=O)N1Cc2ccccc2C[C@@H]1C(=O)N1[C@H](C(=O)O)C[C@@H]2CCCC[C@@H]21 [Compound 31, D-Arg(Hyp^3, Thi^5, D-Tic^7, Oic^8)desArg^9BK, reference compound] (H-[dR]RP[Hyp]G[2Thi]S[dTic][Oic]-OH; N-terminus and C-terminus assumed) | 51.3 | Inactive |  |  |  |  |  | 7.29 | 0
